{"source": "patent US20240002388A1", "about": "“PYRIMIDINONE COMPOUNDS AND USES THEREOF” (HUTCHISON MEDIPHARMA LIMITED, priority 2020, published 2024)", "key": {"[1]": {"system": "L929 cell line (mouse fibroblastoma cell line)", "assay": "L929 cell viability assay (mTNF-α + Z-VAD-FMK induced necroptosis)", "assay_type": "cell-based", "details": "Mus musculus, L929, 20 h, L929 cells, mTNF-α 0.1 μg/mL + Z-VAD-FMK 5 μM, CellTiter-Glo", "method": "L929 cell line (mouse fibroblastoma cell line): purchased from ATCC (American Type Culture Collection) Cell Bank, cultured in 5% CO2, 37° C. incubator, and MEM medium which contains L-Glutamine, with 10% FBS was used. • MEM medium: GIBCO, Cat #11095080; • Fetal bovine serum (FBS): GIBCO, Cat #10099-141C; • Dimethyl sulfoxide (DMSO): Sigma, Cat #D2650; • 0.25% Trypsin-EDTA: GIBCO, Cat #25200072; • Recombinant Mouse TNF-alpha Protein (mTNF-α): R&D system, Cat #410-MT-050; • Pan-Caspase inhibitor (Z-VAD-FMK): Selleckchem, Cat #S7023; • CellTiter-Glo 2.0 Cell Viability Assay kit: Promega, Cat #G9242; • Microwell plate reader: Envision, Perkin Elmer; • 96-well plate: Corning, Cat #3917.\nThe L929 cells at the logarithmic phase were taken out, and the supernatant was discarded. After trypsinization and cell shedding, 10% FBS-containing medium was added for neutralization, and the supernatant was discarded after centrifugation. The cells were re-suspended using 10% FBS-containing medium, adjusted to 7×10^4 cells/ml, added to 96-well microplate at 70 μL/well, i.e., 4.9×10^3 cells/well. Then the plate was incubated in a 5% CO2, 37° C. cell incubator overnight.\nAfter incubating overnight, the 96-well plate was taken out, the medium was discarded, and the plate was washed with 1% FBS-containing MEM medium. Then 1% FBS-containing MEM medium was added at 70 μL/well, and the plate was cultured in a 5% CO2, 37° C. cell incubator. After incubating for 1 hour, the test compound was diluted to the corresponding concentrations using DMSO with 3-fold serial dilution, then the corresponding concentration of DMSO diluted solution was diluted into 1% FBS-containing MEM medium, and 10 μL/well of the diluted test compound with different concentrations (final concentrations of test compound were 10, 3.33, 1.11, 0.37, 0.12, 0.04, 0.014 and 0.005 μM, while final concentration of DMSO was 0.3%) or 10 μL/well control solution (3% DMSO) were added to the cell culture system respectively, with the total volume being 80 μL/well. Then 10 μL of Z-VAD-FMK solution diluted with 1% FBS-containing MEM medium (final concentration of 5 μM) or 10 μL of control solution (2.5% DMSO) was added to each well, with the total volume being 90 μL/well. The plate was incubated in a 5% CO2, 37° C. cell culture incubator for 1 hour.\nAfter incubating for 1 hour, 10 μL of recombinant mouse TNF-α protein solution diluted with 1% FBS-containing MEM medium (final concentration of 0.1 μg/mL) or 10 μL control solution (1% FBS-containing MEM medium) was added to each well. The plate was incubated in a 5% CO2, 37° C. cell culture incubator for 20 hours.\n(§1) The cell culture plate was taken out from the incubator, and left to stand at room temperature for 30 minutes. Meanwhile, CellTiter-Glo viability assay kit was put from freezer to room temperature, and 50 μL of CellTiter-Glo reagent was added to all wells, the plate was shaken for 1 minutes, protected from light at room temperature for 10 minutes then read the plate on Envision to get the luminescence signal.\n(§2) The 96-well plate in the dark was taken out, and the chemiluminescence was determined using the Envision microwell plate reader as the signal value of each well.\n(§3) The mean signal value of the wells of the mixed solution of recombinant mouse TNF-alpha protein (final concentration of 0.1 μg/mL) and Pan-Caspase inhibitor (final concentration of 5 μM) was used as the lower value, and the mean signal value of the wells without stimulation was used as the upper value. According to the signal value of each well, the inhibition rate of each concentration of every compound was calculated, and the IC50 value of compound was obtained by Model 205 in XL-Fit 5.3 software (ID Business Solutions Limited).\n(§4) Inhibition rate %=[(Luminescence readout of treated compound−Luminescence readout of positive control)/(Luminescence readout of negative control−Luminescence readout of positive control)]×100%, wherein"}, "[2]": {"system": "U937 cell line (human histiocytic lymphoma cell line)", "assay": "U937 cell viability assay (TNF-α + Z-VAD-FMK induced necroptosis)", "assay_type": "cell-based", "details": "Homo sapiens, U-937; U937 cells, hTNF-α 0.1 μg/mL + Z-VAD-FMK 50 μM, 20 hours, CellTiter-Glo", "method": "U937 cell line (human histiocytic lymphoma cell line): purchased from ATCC (American Type Culture Collection) Cell Bank, cultured in a 5% CO2, 37° C. incubator, and RPMI 1640 medium which contains L-glutamine, 1.5 g/L sodium bicarbonate, 2.383 g/L HEPES solution, 0.11 g/L sodium pyruvate and 4.5 g/L glucose, plus 10% fetal bovine serum (FBS) was used. • RPMI 1640 medium: GIBCO, Cat #A10491-01; • Fetal bovine serum (FBS): GIBCO, Cat #10099-141C; • Dimethyl sulfoxide (DMSO): Sigma, Cat #D2650; • Recombinant Human TNF-alpha Protein (hTNF-α): R&D system, Cat #210-TA-100; • Pan-Caspase inhibitor (Z-VAD-FMK): Selleckchem, Cat #S7023; • CellTiter-Glo 2.0 Cell Viability Assay kit: Promega, Cat #G9242; • Microwell plate reader: Envision, Perkin Elmer; • 96-well plate: Corning, Cat #3917.\nThe U937 cells at the logarithmic phase were taken out, centrifuged to remove the medium, washed with PRMI 1640 medium containing 1% FBS, and diluted with 1% FBS-containing RPMI 1640 medium to 2.5×10^5 cells/ml, inoculated at 70 μL/well into a 96-well plate, i.e., 1.75×10^4 cells/well. The plate was cultured in a 5% CO2, 37° C. cell incubator. After incubating for 1 hour, the test compound was diluted to the corresponding concentrations using DMSO with 3-fold serial dilution, then the corresponding concentration of DMSO diluted solution was diluted into 1% FBS-containing RPMI 1640 medium, and 10 μL/well of the diluted test compound with different concentrations (final concentration of test compound was 1.0, 0.333, 0.111, 0.037, 0.012, 0.004, 0.0014 and 0.0005 μM, while final concentration of DMSO was 0.3%) or 10 μL/well control solution (3% DMSO) were added to the cell culture system respectively, with the total volume being 80 μL/well; Then 10 μL of Z-VAD-FMK solution diluted with 1% FBS-containing RPMI 1640 medium (final concentration of 50 μM) or 10 μL of control solution (2.5% DMSO) was added to each well, with the total volume being 90 μL/well. The plate was incubated in a 5% CO2, 37° C. cell culture incubator for 1 hour.\nAfter being cultured for 1 hour, 10 μL of human recombinant TNF-α protein diluted with 1% FBS-containing RPMI 1640 medium (final concentration of 0.1 μg/mL) or 10 μL/well control solution (1% FBS-containing RPMI 1640 medium) was added to each well. The plate was incubated in a 5% CO2, 37° C. cell culture incubator for 20 hours.\nas §1, §2\nas §3, with “recombinant human” for “recombinant mouse”, “of 50” for “of 5”\nas §4"}}, "data": [{"smiles": "CC(C)n1cncc(-c2ccc(C3(NC(=O)c4nnc(Cc5ccccc5)[nH]4)CC3)cc2)c1=O", "note": "[Compound 14]", "values": [{"measurement": "IC50", "setting": "[1]", "value": 181, "unit": "nM"}, {"measurement": "IC50", "setting": "[2]", "value": 3, "unit": "nM"}]}]}
